pIC50, pKi: −log10 of the molar value. One block for each molecule: values may come before it.
How the values were obtained:
ICE = target: T1, ICE (Homo sapiens, UniProt P29466); test: Enzyme assay with UV-visible substrate (visible ICE assay, Succinyl-Tyr-Val-Ala-Asp-pNitroanilide); assay type: biochemical
T1 sequence (P29466 120-297 limits assumed): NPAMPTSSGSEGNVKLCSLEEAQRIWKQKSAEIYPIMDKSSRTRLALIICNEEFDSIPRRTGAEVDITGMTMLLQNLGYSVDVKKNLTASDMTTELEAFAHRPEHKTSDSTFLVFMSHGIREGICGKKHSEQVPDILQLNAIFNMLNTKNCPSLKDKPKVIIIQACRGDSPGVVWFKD
T1 sequence (P29466 317-404 limits assumed): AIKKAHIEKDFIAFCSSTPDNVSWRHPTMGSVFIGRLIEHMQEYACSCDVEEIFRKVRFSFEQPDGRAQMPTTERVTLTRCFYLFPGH
Summary of the method: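 Human ICE was preincubated with inhibitor in DMSO and buffer for 15 min at room temperature, then succinyl-Tyr-Val-Ala-Asp-pNA was added. pNA release was followed at 405-603 nm for 20 min at 37° C. Ki and inhibition mode came from fitting rates to standard kinetic equations.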

[1] = tested on: IL-1β, human peripheral blood mononuclear cells (PBMC); test: PBMC cell assay: IL-1β assay with human PBMC or enriched adherent mononuclear cells, LPS-stimulated; assay type: cell-based
Summary of the method: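 Buffy-coat human PBMC at 6×10^6 cells/ml, or adherent monocytes enriched by 1 h adherence (2.5−3.0×10^5 cells/well), are given 5–6 compound dilutions bracketing the ICE Ki (final DMSO 0.1%) plus LPS at a final 5 ng/ml. They are incubated 16–18 hr at 37 °C, 5% CO2, and supernatant mature IL-1β is measured by ELISA, with duplicate cultures and duplicate ELISAs.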

[2] = In vivo rat clearance assay; conditions: plasma, iv, 10-20 mg/kg
Summary of the method: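 Rats cannulated a day beforehand received 10–20 mg/kg by intravenous jugular dosing in propylene glycol/saline with 100 mM sodium bicarbonate. Carotid blood was sampled from 0 to 90 min, and plasma was extracted with acetonitrile/0.1% TFA for HPLC quantification. Clearance from non-linear regression pharmacokinetic analysis.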

[3] = Homo sapiens, PBMC, * = values obtained upon reassay

SMILES: O=C1C[C@H](NC(=O)[C@@H]2CCCN3C(=O)CC[C@H](NC(=O)c4ccccc4)C(=O)N23)C(OCCc2ccccc2)O1 (mixture of isomers) [Compound 2100k, [1S,9S(2RS,3S)]9-Benzoylamino-6,10-dioxo-1,2,3,4,7,8,9,10-octahydro-N-(2-phenethyloxy-5-oxotetrahydrofuran-3-yl)-6H-pyridazino[1,2-a][1,2]diazepine-1-carboxamide]
pKi (ICE; Table 17): 6.28
pIC50 ([1]; Homo sapiens, PBMC, Table 17): 5.40

SMILES: O=C1C[C@H](NC(=O)[C@@H]2CCCN3C(=O)CC[C@H](NC(=O)c4ccccc4)C(=O)N23)C(OCc2ccccc2)O1 (single isomer, unassigned) [Compound 2100n]
pKi (ICE; Table 17): 6.17
pIC50 ([1]; Homo sapiens, PBMC, Table 17): 6.11

SMILES: CS(=O)(=O)N[C@H]1CCC(=O)N2CCC[C@@H](C(=O)N[C@@H](CC(=O)O)C(=O)COC(=O)c3sccc3Cl)N2C1=O [505 e, [3S(1S,9S)]5-(3-Chlorothien-2-oyloxy)-3-(6,10-dioxo-9-methanesulphonylamino-1,2,3,4,7,8,9,10-octahydro-6H-pyridazino[1,2-a][1,2]diazepine-1-carboxamido)-4-oxopentanoic acid]
pIC50 ([1]; Table 18): 5.05

clearance [2]: 32 mL/min/kg
SMILES: O=C[C@H](CC(=O)O)NC(=O)[C@@H]1CCCN2C(=O)CC[C@H](NC(=O)CCc3ccccc3)C(=O)N12 [Compound 47a, [3S(1S,9S)]3-(6,10-Dioxo-octahydro-9-(3-phenylpropionylamino)-6H-pyridazino[1,2-a][1,2]diazepine-1-carboxamido)-4-oxobutanoic acid]
pIC50 [1, 3]: 5.59

SMILES: O=C(O)C[C@H](NC(=O)[C@@H]1CCCN2C(=O)CC[C@H](NC(=O)CCc3ccccc3)C(=O)N12)C(=O)CSCc1ccccc1Cl [Compound 125b, [3S(1S,9S)]-3-(6,10-dioxo-1,2,3,4,7,8,9,10-octahydro)-9-(3-phenylpropionyl-amino)-6H-pyridazine[1,2-a][1,2]diazepine-1-carboxamido-5-(2-chlorophenyl-methylthio)-4-oxopentanoic acid]
pIC50 [1, 3]: 6.10

SMILES: COc1cccc2nc(C(=O)[C@H](CC(=O)O)NC(=O)[C@@H]3CCCN4C(=O)CC[C@H](NC(=O)CCc5ccccc5)C(=O)N34)oc12 [Compound 135a]
pIC50 [1, 3]: 5.55

SMILES: O=C(O)C[C@H](NC(=O)[C@@H]1CCCN2C(=O)CC[C@H](NC(=O)CCc3ccccc3)C(=O)N12)C(=O)COC(=O)c1c(Cl)cccc1Cl [Compound 136]
pIC50 [1, 3]: 6.06

SMILES: O=C(O)C[C@H](NC(=O)[C@@H]1CCCN2C(=O)CC[C@H](NC(=O)CCc3ccccc3)C(=O)N12)C(=O)c1ncc(-c2c(Cl)cccc2Cl)o1 [Compound 137]
pIC50 [1, 3]: 5.77

SMILES: CS(=O)(=O)N[C@H]1CCC(=O)N2CCC[C@@H](C(=O)N[C@@H](CC(=O)O)C(=O)COC(=O)c3c(Cl)cccc3Cl)N2C1=O [Compound 138]
pIC50 [1, 3]: 6.05

SMILES: O=C1C[C@H](NC(=O)[C@@H]2CCCN3C(=O)CC[C@H](NC(=O)c4ccccc4)C(=O)N23)C(OCc2ccccc2)O1 (stereo partly drawn) [Compound 213e, [1S,9S(2RS,3S)]9-Benzoylamino-6,10-dioxo-1,2,3,4,7,8,9,10-octahydro-N-(2-benzyloxy-5-oxotetrahydrofuran-3-yl)-6H-pyridazino[1,2-a][1,2]-diazepine-1-carboxamide]
pKi (ICE; Table 5): 6.89
pIC50 [1, 3]: 6.05

SMILES: CC(=O)N[C@H]1CCC(=O)N2CCC[C@@H](C(=O)N[C@@H](CC(=O)O)C(=O)COC(=O)c3c(Cl)cccc3Cl)N2C1=O [Compound 217c, [3S(1S,9S)]3-(9-Acetylamino-6,10-dioxo-1,2,3,4,7,8,9,10-octahydro-6H-pyridazino-[1,2-a][1,2]diazepine-1-carboxamido)-5-(2,6-dichlorobenzoyloxy)-4-oxopentanoic acid]
pIC50 [1, 3]: 5.77

SMILES: O=C(O)C[C@H](NC(=O)[C@@H]1CCCN2C(=O)CC[C@H](NC(=O)OCc3ccccc3)C(=O)N12)C(=O)COC(=O)c1c(Cl)cccc1Cl [Compound 217d, [3S(1S,9S)]3-(9-Benzyloxycarbonylamino-6,10-dioxo-1,2,3,4,7,8,9,10-octahydro-6H-pyridazino[1,2-a][1,2]-diazepine-1-carboxamido)-5-(2,6-dichlorobenzoyloxy)-4-oxopentanoic acid]
pIC50 [1, 3]: 6.47

SMILES: O=C(O)C[C@H](NC(=O)[C@@H]1CCCN2C(=O)CC[C@H](NC(=O)c3ccccc3)C(=O)N12)C(=O)COC(=O)c1c(Cl)cccc1Cl [Compound 217e, [3S(1S,9S)]3-(9-Benzoylamino-6,10-dioxo-1,2,3,4,7,8,9,10-octahydro-6H-pyridazino[1,2-a][1,2]-diazepine-1-carboxamido)-5-(2,6-dichlorobenzoyloxy)-4-oxopentanoic acid]
pIC50 [1, 3]: 6.76

pKi (ICE; Table 5): 8.80
SMILES: O=C(O)C[C@H](NC(=O)[C@@H]1CCCN2C(=O)CC[C@H](NC(=O)c3ccccc3)C(=O)N12)C(=O)c1nc2cc(Cl)cc(Cl)c2o1 [Compound 223e, [3S(1S,9S)]3-(9-Benzoylamino-6,10-dioxo-1,2,3,4,7,8,9,10-octahydro-6H-pyridazino-[1,2-a][1,2]diazepine-1-carboxamido)-4-(5,7-dichlorobenzoxazol-2-yl)-4-oxobutanoic acid]
pIC50 [1, 3]: 5.52

pKi (ICE; Table 5): 7.82
SMILES: O=C(O)C[C@H](NC(=O)[C@@H]1CCCN2C(=O)CC[C@H](NC(=O)c3ccccc3)C(=O)N12)C(=O)CSCc1ccccc1Cl [Compound 226e, [3S(1S,9S)]3-(9-Benzoylamino-6,10-dioxo-1,2,3,4,7,8,9,10-octahydro-6H-pyridazino[1,2-a][1,2]-diazepine-1-carboxamido)-5-(2-chlorophenyl)methylthio-4-oxopentanoic acid]
pIC50 [1, 3]: 5.96

SMILES: O=C(O)CC(NC(=O)[C@@H]1CCCN2C(=O)CC[C@H](NC(=O)c3ccccc3)C(=O)N12)C(=O)CF (stereo partly drawn) [Compound 230e, [3RS,(1S,9S)]3-(9-Benzoylamino-6,10-dioxo-1,2,3,4,7,8,9,10-octahydro-6H-pyridazino[1,2-a][1,2]-diazepine-1-carboxamido)-5-fluoro-4-oxopentanoic acid]
pIC50 ([1]; * = values obtained upon reassay): 6.49

pKi (ICE; Table 5): 7.92
SMILES: O=C[C@H](CC(=O)O)NC(=O)[C@@H]1CCCN2CCC[C@H](NC(=O)c3ccccc3)C(=O)N12 [Compound 246]
pIC50 [1, 3]: 6.02

SMILES: CC(C)(C)OC(=O)C[C@@H](C=O)NC(=O)[C@@H]1CCCN2C(=O)CC[C@H](NC(=O)c3ccccc3)C(=O)N12 [Compound 302, [3S(1S,9S)3-(9-Benzoylamino-6,10-dioxo-1,2,3,4,7,8,9,10-octahydro-6H-pyriazino-[1,2-a][1,2]diazapine-1-carboxamido)-amino]-4-oxobutanoic acid tert-butyl ester]
pKi (ICE; Table 5): 5.35
pIC50 [1, 3]: < 4.70

pKi (ICE; Table 5): 7.92
SMILES: CC(=O)N1C[C@H](NC(=O)c2ccc3ccccc3c2)C(=O)N(CC(=O)N[C@H](C=O)CC(=O)O)c2ccccc21 [Compound 605n]
pIC50 [1, 3]: 5.68

SMILES: O=C1C[C@H](NC(=O)[C@@H]2CCCN3C(=O)CC[C@H](NC(=O)C(=O)c4ccccc4)C(=O)N23)C(OCc2ccccc2)O1 (stereo partly drawn) [Compound 2001, [1S,9S(2RS,3S)]9-Benzoylformylamino-6,10-dioxo-1,2,3,4,7,8,9,10-octahydro-N-(2(R,S)-benzyloxy-5-oxotetrahydrofuran-3-yl)-6H-pyridazino[1,2-a][1,2]-diazepine-1-carboxamide]
pKi (ICE; Table 5): 6.87
pIC50 [1, 3]: 5.74

SMILES: CC(C)OC1OC(=O)C[C@@H]1NC(=O)[C@@H]1CCCN2C(=O)CC[C@H](NC(=O)c3ccccc3)C(=O)N12 (stereo partly drawn) [Compound 2100a, [1S,9S(2RS,3S)]9-Benzoylamino-6,10-dioxo-1,2,3,4,7,8,9,10-octahydro-N-(2-isopropoxy-5-oxo-tetrahydro-furan-3-yl)-6H-pyridazino-[1,2-a][1,2]diazepine-1-carboxamide]
pKi (ICE; Table 5): 7.00
pIC50 [1, 3]: 5.96

SMILES: CCOC(=O)C[C@H](NC(=O)[C@@H]1CCCN2C(=O)CC[C@H](NC(=O)c3ccccc3)C(=O)N12)C(OCC)OCC [Compound 2100b]
pKi (ICE; Table 5): 5.10
pIC50 [1, 3]: < 4.70

SMILES: COC(=O)C[C@H](NC(=O)[C@@H]1CCCN2C(=O)CC[C@H](NC(=O)c3ccccc3)C(=O)N12)C(OC)OC [Compound 2100c]
pKi (ICE; Table 5): 5.13
pIC50 [1, 3]: < 4.70

SMILES: CC(C)OC(=O)C[C@H](NC(=O)[C@@H]1CCCN2C(=O)CC[C@H](NC(=O)c3ccccc3)C(=O)N12)C(OC(C)C)OC(C)C [Compound 2100d]
pKi (ICE; Table 5): < 4.00
pIC50 [1, 3]: < 4.70

SMILES: CCOC1OC(=O)C[C@@H]1NC(=O)[C@@H]1CCCN2C(=O)CC[C@H](NC(=O)c3ccccc3)C(=O)N12 (stereo partly drawn) [Compound 2100e, [1S,9S(2RS,3S)]9-Benzoylamino-6,10-dioxo-1,2,3,4,7,8,9,10-octahydro-N-(2-ethoxy-5-oxo-tetrahydro-furan-3-yl)-6H-pyridazino[1,2-a][1,2]-diazepine-1-carboxamide]
pKi (ICE; Table 5): 6.60
pIC50 [1, 3]: 6.10

SMILES: O=C1C[C@H](NC(=O)[C@@H]2CCCN3C(=O)CC[C@H](NC(=O)c4ccccc4)C(=O)N23)[C@H](OCc2ccccc2)O1 [Compound 2100o, [1S,9S(2R,3S)]9-Benzoylamino-N-(2-benzyloxy-5-oxotetrahydrofuran-3-yl)-6,10-dioxo-1,2,3,4,7,8,9,10-octahydro-6H-pyridazino[1,2-a][1,2]diazepine-1-carboxamide]
pKi (ICE; Table 17): 6.17
pIC50 ([1]; Homo sapiens, PBMC, Table 17): 5.94
